# According to US20100092526A1, “NANOEMULSION THERAPEUTIC COMPOSITIONS AND METHODS OF USING THE SAME” (NanoBio Corporation, priority 2008, published 2010):
# Key:
# [1] = system: Stenotrophomonas maltophilia; test: MIC/MBC of nanoemulsions against gram-negative isolates (CLSI, alamar blue); format: cell-based; conditions: Stenotrophomonas maltophilia (n = 5); nanoemulsions in the presence of 5 mM EDTA
# [2] = system: Acinetobacter baumannii; test: as above; format: cell-based; conditions: Acinetobacter baumannii (n = 5)
# [3] = system: Burkholderia cenocepacia; test: MIC/MBC against CF isolates (CLSI, alamar blue)
# [4] = system: Burkholderia cepacia; test: MIC/MBC of nanoemulsions against gram-negative isolates (CLSI, alamar blue); format: cell-based; conditions: Burkholderia cepacia (n = 5); nanoemulsions in the presence of 5 mM EDTA; in µg/mL
# [5] = system: Stenotrophomonas maltophilia; test: MIC/MBC against CF isolates (CLSI, alamar blue)
# [6] = system: Pseudomonas aeruginosa; test: MIC/MBC of nanoemulsions against gram-negative isolates (CLSI, alamar blue); format: cell-based; conditions: Pseudomonas aeruginosa (n = 5)
# [7] = system: Escherichia coli; test: as above; format: cell-based; conditions: Escherichia coli (n = 5), nanoemulsions in the presence of 5 mM EDTA
# [8] = system: Pseudomonas aeruginosa; test: MIC/MBC against CF isolates (CLSI, alamar blue)
# [9] = system: Klebsiella pneumoniae; test: MIC/MBC of nanoemulsions against gram-negative isolates (CLSI, alamar blue); format: cell-based; conditions: Klebsiella pneumoniae (n = 5), nanoemulsions in the presence of 5 mM EDTA
# [10] = system: Acinetobacter baumannii; test: MIC/MBC against clinical isolates (CLSI, alamar blue)
# [11] = system: Proteus mirabilis; test: MIC/MBC of nanoemulsions against gram-negative isolates (CLSI, alamar blue); format: cell-based; conditions: Proteus mirabilis (n = 5), nanoemulsions in the presence of 5 mM EDTA
# [12] = nanoemulsions in the presence of 5 mM EDTA
# [13] = B. cenocepacia, NE with 5 mM EDTA
# [14] = 11 CF Stenotrophomonas isolates
# [15] = CF Stenotrophomonas isolate NB41
# [16] = CF Stenotrophomonas isolate NB42
# [17] = CF Stenotrophomonas isolate NB43
# [18] = CF Stenotrophomonas isolate NB44
# [19] = CF Stenotrophomonas isolate NB45
# [20] = CF Stenotrophomonas isolate Steno 1
# [21] = CF Stenotrophomonas isolate Steno 2
# [22] = CF Stenotrophomonas isolate Steno 3
# [23] = CF Stenotrophomonas isolate Steno 4
# [24] = CF Stenotrophomonas isolate Steno 6
# [25] = CF Stenotrophomonas isolate Steno 8
# [26] = S. maltophilia, NE with 1 mM EDTA
# [27] = Stenotrophomonas, each drug alone
# [28] = P. aeruginosa, NE with 5 mM EDTA
# [29] = A. baumannii, NE with 1 mM EDTA
substance,measurement,setting,value
Colistin,MIC50,[1],≤ 0.5 µg/mL
same,MIC Range,[1],<=0.5-1 ^
same,% resistant,[2],0.0%
same,% susceptible,[2],100.0%
same,MIC50,[2]; [12],≤ 0.5 µg/mL
same,MIC Range,[2]; [12],<=0.5-2 ^
same,MBC 50,[3]; 10 CF Burkholderia isolates,>32 µg/mL
same,MBC 90,[3]; 10 CF Burkholderia isolates,>32 µg/mL
same,MIC50,[3]; 10 CF Burkholderia isolates,>32 µg/mL
same,MIC90,[3]; 10 CF Burkholderia isolates,>32 µg/mL
same,MBC 90,[3]; [13],> 32 µg/mL
same,MIC90,[3]; [13],> 32 µg/mL
same,MBC 50,"[3]; Burkholderia, each drug alone",>32 µg/mL
same,MBC 90,"[3]; Burkholderia, each drug alone",>32 µg/mL
same,MIC50,"[3]; Burkholderia, each drug alone",>32 µg/mL
same,MIC90,"[3]; Burkholderia, each drug alone",>32 µg/mL
same,MBC,[3]; CF Burkholderia isolate NB21,>32 µg/mL
same,MIC,[3]; CF Burkholderia isolate NB21,>32 µg/mL
same,MBC,[3]; CF Burkholderia isolate NB22,>32 µg/mL
same,MIC,[3]; CF Burkholderia isolate NB22,>32 µg/mL
same,MBC,[3]; CF Burkholderia isolate NB23,>32 µg/mL
same,MIC,[3]; CF Burkholderia isolate NB23,>32 µg/mL
same,MBC,[3]; CF Burkholderia isolate NB24,>32 µg/mL
same,MIC,[3]; CF Burkholderia isolate NB24,>32 µg/mL
same,MBC,[3]; CF Burkholderia isolate NB25,>32 µg/mL
same,MIC,[3]; CF Burkholderia isolate NB25,>32 µg/mL
same,MBC,[3]; CF Burkholderia isolate NB26,>32 µg/mL
same,MIC,[3]; CF Burkholderia isolate NB26,32 µg/mL
same,MBC,[3]; CF Burkholderia isolate NB27,>32 µg/mL
same,MIC,[3]; CF Burkholderia isolate NB27,>32 µg/mL
same,MBC,[3]; CF Burkholderia isolate NB28b,>32 µg/mL
same,MIC,[3]; CF Burkholderia isolate NB28b,>32 µg/mL
same,MBC,[3]; CF Burkholderia isolate NB29,>32 µg/mL
same,MIC,[3]; CF Burkholderia isolate NB29,>32 µg/mL
same,MBC,[3]; CF Burkholderia isolate NB30,>32 µg/mL
same,MIC,[3]; CF Burkholderia isolate NB30,>32 µg/mL
same,MIC Range,[4],>4
same,MBC 50,[5]; [14],>32 µg/mL
same,MBC 90,[5]; [14],>32 µg/mL
same,MIC50,[5]; [14],16 µg/mL
same,MIC90,[5]; [14],>32 µg/mL
same,MBC,[5]; [15],32 µg/mL
same,MIC,[5]; [15],2 µg/mL
same,MBC,[5]; [16],8 µg/mL
same,MIC,[5]; [16],2 µg/mL
same,MBC,[5]; [17],>32 µg/mL
same,MIC,[5]; [17],16 µg/mL
same,MBC,[5]; [18],>32 µg/mL
same,MIC,[5]; [18],32 µg/mL
same,MBC,[5]; [19],16 µg/mL
same,MIC,[5]; [19],8 µg/mL
same,MBC,[5]; [20],>32 µg/mL
same,MIC,[5]; [20],>32 µg/mL
same,MBC,[5]; [21],>32 µg/mL
same,MIC,[5]; [21],32 µg/mL
same,MBC,[5]; [22],>32 µg/mL
same,MIC,[5]; [22],>32 µg/mL
same,MBC,[5]; [23],4 µg/mL
same,MIC,[5]; [23],1 µg/mL
same,MBC,[5]; [24],>32 µg/mL
same,MIC,[5]; [24],16 µg/mL
same,MBC,[5]; [25],32 µg/mL
same,MIC,[5]; [25],8 µg/mL
same,MBC 90,[5]; [26],> 32 µg/mL
same,MIC90,[5]; [26],> 32 µg/mL
same,MBC 50,[5]; [27],>32 µg/mL
same,MBC 90,[5]; [27],>32 µg/mL
same,MIC50,[5]; [27],16 µg/mL
same,MIC90,[5]; [27],>32 µg/mL
same,% resistant,[6],0.0%
same,% susceptible,[6],100.0%
same,MIC50,[6]; [12],1 µg/mL
same,MIC Range,[6]; [12],<=0.5-2 ^
same,MIC50,[7],≤ 0.5 µg/mL
same,MIC Range,[7]; in µg/mL,<=0.5
same,MBC 50,[8]; 20 CF Pseudomonas isolates,4 µg/mL
same,MBC 90,[8]; 20 CF Pseudomonas isolates,8 µg/mL
same,MIC50,[8]; 20 CF Pseudomonas isolates,2 µg/mL
same,MIC90,[8]; 20 CF Pseudomonas isolates,2 µg/mL
same,MBC,[8]; CF Pseudomonas isolate NB1,>8 µg/mL
same,MIC,[8]; CF Pseudomonas isolate NB1,2 µg/mL
same,MBC,[8]; CF Pseudomonas isolate NB2,8 µg/mL
same,MIC,[8]; CF Pseudomonas isolate NB2,1 µg/mL
same,MBC,[8]; CF Pseudomonas isolate NB3,8 µg/mL
same,MIC,[8]; CF Pseudomonas isolate NB3,1 µg/mL
same,MBC,[8]; CF Pseudomonas isolate NB4,4 µg/mL
same,MIC,[8]; CF Pseudomonas isolate NB4,2 µg/mL
same,MBC,[8]; CF Pseudomonas isolate NB5,8 µg/mL
same,MIC,[8]; CF Pseudomonas isolate NB5,2 µg/mL
same,MBC,[8]; CF Pseudomonas isolate NB6,4 µg/mL
same,MIC,[8]; CF Pseudomonas isolate NB6,2 µg/mL
same,MBC,[8]; CF Pseudomonas isolate NB7,4 µg/mL
same,MIC,[8]; CF Pseudomonas isolate NB7,2 µg/mL
same,MBC,[8]; CF Pseudomonas isolate NB8,8 µg/mL
same,MIC,[8]; CF Pseudomonas isolate NB8,2 µg/mL
same,MBC,[8]; CF Pseudomonas isolate NB9,8 µg/mL
same,MIC,[8]; CF Pseudomonas isolate NB9,2 µg/mL
same,MBC,[8]; CF Pseudomonas isolate NB10,2 µg/mL
same,MIC,[8]; CF Pseudomonas isolate NB10,2 µg/mL
same,MBC,[8]; CF Pseudomonas isolate NB11,4 µg/mL
same,MIC,[8]; CF Pseudomonas isolate NB11,1 µg/mL
same,MBC,[8]; CF Pseudomonas isolate NB12,8 µg/mL
same,MIC,[8]; CF Pseudomonas isolate NB12,4 µg/mL
same,MBC,[8]; CF Pseudomonas isolate NB13,8 µg/mL
same,MIC,[8]; CF Pseudomonas isolate NB13,2 µg/mL
same,MBC,[8]; CF Pseudomonas isolate NB14,4 µg/mL
same,MIC,[8]; CF Pseudomonas isolate NB14,2 µg/mL
same,MBC,[8]; CF Pseudomonas isolate NB15,8 µg/mL
same,MIC,[8]; CF Pseudomonas isolate NB15,2 µg/mL
same,MBC,[8]; CF Pseudomonas isolate NB16,4 µg/mL
same,MIC,[8]; CF Pseudomonas isolate NB16,2 µg/mL
same,MBC,[8]; CF Pseudomonas isolate NB17,4 µg/mL
same,MIC,[8]; CF Pseudomonas isolate NB17,1 µg/mL
same,MBC,[8]; CF Pseudomonas isolate NB18,4 µg/mL
same,MIC,[8]; CF Pseudomonas isolate NB18,1 µg/mL
same,MBC,[8]; CF Pseudomonas isolate NB19,4 µg/mL
same,MIC,[8]; CF Pseudomonas isolate NB19,2 µg/mL
same,MBC,[8]; CF Pseudomonas isolate NB20,>8 µg/mL
same,MIC,[8]; CF Pseudomonas isolate NB20,2 µg/mL
same,MBC 90,[8]; [28],8 µg/mL
same,MIC90,[8]; [28],2 µg/mL
same,MBC 50,"[8]; second MBC 50 line of the summary, Stenotrophomonas, values equal those of the CF Pseudomonas isolates",4 µg/mL
same,MBC 90,"[8]; second MBC 90 line of the summary, Stenotrophomonas, values equal those of the CF Pseudomonas isolates",8 µg/mL
same,MIC50,[9],≤ 0.5 µg/mL
same,MIC Range,[9]; in µg/mL,<=0.5
same,MBC 50,[10]; 10 Acinetobacter isolates,4 µg/mL
same,MBC 90,[10]; 10 Acinetobacter isolates,>16 µg/mL
same,MIC50,[10]; 10 Acinetobacter isolates,1 µg/mL
same,MIC90,[10]; 10 Acinetobacter isolates,1 µg/mL
same,MBC 90,[10]; [29],> 16 µg/mL
same,MIC90,[10]; [29],1 µg/mL
same,MBC,[10]; Acinetobacter isolate NB31,1 µg/mL
same,MIC,[10]; Acinetobacter isolate NB31,1 µg/mL
same,MBC,[10]; Acinetobacter isolate NB32,8 µg/mL
same,MIC,[10]; Acinetobacter isolate NB32,1 µg/mL
same,MBC,[10]; Acinetobacter isolate NB33,4 µg/mL
same,MIC,[10]; Acinetobacter isolate NB33,1 µg/mL
same,MBC,[10]; Acinetobacter isolate NB34,1 µg/mL
same,MIC,[10]; Acinetobacter isolate NB34,1 µg/mL
same,MBC,[10]; Acinetobacter isolate NB35,4 µg/mL
same,MIC,[10]; Acinetobacter isolate NB35,1 µg/mL
same,MBC,[10]; Acinetobacter isolate NB36,1 µg/mL
same,MIC,[10]; Acinetobacter isolate NB36,1 µg/mL
same,MBC,[10]; Acinetobacter isolate NB37,>16 µg/mL
same,MIC,[10]; Acinetobacter isolate NB37,1 µg/mL
same,MBC,[10]; Acinetobacter isolate NB38,>16 µg/mL
same,MIC,[10]; Acinetobacter isolate NB38,1 µg/mL
same,MBC,[10]; Acinetobacter isolate NB39,8 µg/mL
same,MIC,[10]; Acinetobacter isolate NB39,1 µg/mL
same,MBC,[10]; Acinetobacter isolate NB40,>16 µg/mL
same,MIC,[10]; Acinetobacter isolate NB40,1 µg/mL
same,MBC 50,"[10]; Acinetobacter, each drug alone",4 µg/mL
same,MBC 90,"[10]; Acinetobacter, each drug alone",>16 µg/mL
same,MIC50,"[10]; Acinetobacter, each drug alone",1 µg/mL
same,MIC90,"[10]; Acinetobacter, each drug alone",1 µg/mL
same,MIC50,[11],> 4 µg/mL
same,MIC Range,[11]; in µg/mL,>4
